Experimental data from patent US8354433B2, “Anti-inflammatory agents as virostatic compounds” (4SC AG, priority 2009, dated 2013).
Like-named read-outs stand apart in the source and are kept apart here.

Assays:
[1] = Cell viability in HepG2-2.2.15 cells (Cell Titer 96); type: cell-based; conditions: human, six days, read-out: TC50
Experimental: Anti-HBV assay was performed as described in Korba, B F and Milman, G., 1991 (A cell culture assay for compound which inhibits hepatitis B virus replication. Antiviral Res. 15: 217-228) and in Korba, B F and Gerin, J L., 1992 (Use of a standardized cell culture assay to assess activities of nucleoside analogs again hepatitis B virus replication. Antiviral Res. 19: 55-70) with modifications to measure extracellular HBV DNA copy with real-time PCR (qPCR/TaqMan). Briefly, HepG2-2.2.15 cells were plated in 96-well microtiter plates. Only the interior wells were utilized to reduce “edge effects” observed during cell culture; the exterior wells were filled with complete medium to help minimize sample evaporation. After 16-24 hours the confluent monolayer of HepG2-2.2.15 cells was washed and the medium was replaced with complete medium containing various concentrations of a test compound in triplicate. 3TC was used as the positive control, while media alone was added to cells as a negative control. Three days later the culture medium was replaced with fresh medium containing the appropriately diluted drug. Six days following the initial administration of the test compound, the cell culture supernatant was collected, treated with pronase and then used in a quantitative qPCR TaqMan assay. Antiviral activity was calculated from the reduction in HBV DNA levels (IC50). Cell Titer 96 ®AQueous One Solution Cell Proliferation kit (Promega, Madison, Wis.) was used to measure cell viability which is used to calculate toxicity (TC50). The therapeutic index (TI) was calculated as TC50/IC50

HIV-191US005 = experiment: Anti-HIV efficacy in fresh human PBMCs (RT activity and p24 ELISA); type: cell-based, HIV-1; conditions: Human immunodeficiency virus 1, PBMC, 168 h
DENV Type 2 (New Guinea) = experiment: microbe, parasite or virus in culture; type: cell-based; conditions: Dengue virus, Vero C1008, read-out: Antiviral Activity EC50
HCMV AD 169-GFP = experiment: microbe, parasite or virus in culture; type: cell-based, Human Cytomegalovirus; conditions: Human betaherpesvirus 5, Fibroblast, 168 h, read-out: Antiviral Activity EC50
RSV Strain Long = experiment: microbe, parasite or virus in culture; type: cell-based; conditions: human respiratory syncytial virus, Vero, read-out: Antiviral Activity EC50
[2] = biological target: dihydroorotate dehydrogenase (DHODH) (Homo sapiens, UniProt Q02127); experiment: DHODH inhibition, in vitro assay; type: biochemical
Chain of dihydroorotate dehydrogenase (DHODH) (Q02127 whole entry): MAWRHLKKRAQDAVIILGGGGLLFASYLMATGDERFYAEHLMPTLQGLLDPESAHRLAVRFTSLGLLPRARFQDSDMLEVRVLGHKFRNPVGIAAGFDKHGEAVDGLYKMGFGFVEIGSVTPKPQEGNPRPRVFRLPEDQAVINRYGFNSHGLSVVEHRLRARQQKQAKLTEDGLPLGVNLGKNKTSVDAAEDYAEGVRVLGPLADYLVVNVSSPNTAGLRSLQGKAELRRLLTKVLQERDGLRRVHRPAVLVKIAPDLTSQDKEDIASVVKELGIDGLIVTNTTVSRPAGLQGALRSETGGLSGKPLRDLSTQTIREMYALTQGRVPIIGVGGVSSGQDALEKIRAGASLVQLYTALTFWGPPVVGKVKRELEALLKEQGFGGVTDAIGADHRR

Influenza Virus (H7N7) = experiment: microbe, parasite or virus in culture; type: cell-based, avian influenza virus (Fowl Plaque Virus; conditions: unidentified influenza virus, H7N7, A549, 16 h; for inhibition at 30 µM: read-out: Antiviral Activity % Inhibition
HBV = experiment: Anti-HBV evaluation with HepG2 2.2.15 cells (extracellular HBV DNA, qPCR); type: cell-based; conditions: Hepatitis B virus, read-out: Antiviral Activity EC50
Experimental: Compounds were solubilized in DMSO in a concentration of 40 mM. (−)-2′-Desoxy-3′-thiacytidin (3TC) was used as the positive antiviral controls. The high-test concentrations were 10 μM for 4SC compounds and 1 μM for 3TC.
Briefly, HepG2-2.2.15 cells were plated in 96-well microtiter plates. Only the interior wells were utilized to reduce “edge effects” observed during cell culture; the exterior wells were filled with complete medium to help minimize sample evaporation. After 16-24 hours the confluent monolayer of HepG2-2.2.15 cells was washed and the medium was replaced with complete medium containing various concentrations of a test compound in triplicate. 3TC was used as the positive control, while media alone was added to cells as a negative control. Three days later the culture medium was replaced with fresh medium containing the appropriately diluted drug. Six days following the initial administration of the test compound, the cell culture supernatant was collected, treated with pronase and then used in a quantitative qPCR TaqMan assay. Antiviral activity was calculated from the reduction in HBV DNA levels (IC50). Cell Titer 96 ®AQueous One Solution Cell Proliferation kit (Promega, Madison, Wis.) was used to measure cell viability which is used to calculate toxicity (TC50). The therapeutic index (TI) was calculated as TC50/IC50

[3] = system: HCV subgenomic replicon of genotype 1b; experiment: microbe, parasite or virus in culture; type: cell-based; conditions: Hepatitis C virus, 24 h, read-out: Antiviral Activity EC50/nM
in vitro [4] = conditions: human
[5] = system: ET cell line (luc-ubi-neo/ET), Huh7; experiment: CytoTox-1 cytotoxicity in ET cells; conditions: 24 h, cell unit μM
YFV Strain 17D = experiment: microbe, parasite or virus in culture; type: cell-based; conditions: Yellow fever virus, Vero, read-out: Antiviral Activity EC50
WNV Strain NY-99 = experiment: microbe, parasite or virus in culture; type: cell-based; conditions: West Nile virus, Vero, read-out: Antiviral Activity EC50
human PBMCs = experiment: MTS cytotoxicity in human PBMCs; conditions: seven days
Ebola Virus = experiment: microbe, parasite or virus in culture; type: cell-based; conditions: Zaire ebolavirus, Vero, read-out: Antiviral Activity % Inhibition
in vitro [6] = conditions: African green monkey
in vitro [7] = conditions: African green monkey; remark: listed apart in the source
in vitro [8] = conditions: African green monkey; remark: listed apart in the source
Vero cells [9] = conditions: African green monkey
Vero cells [10] = conditions: African green monkey; remark: listed apart in the source
Vero cells [11] = conditions: African green monkey; remark: listed apart in the source
[12] = Endpoint RT, seven days, read-out: EC50/nM
[13] = Endpoint RT, seven days, read-out: EC90/nM
[14] = Endpoint p24, seven days, read-out: EC50/nM
[15] = Endpoint p24, seven days, read-out: EC90/nM
[16] = Table 3, read-out: DHODH IC50/nM
[17] = Table 4, read-out: DHODH IC50/nM
[18] = Table 5, read-out: DHODH IC50/nM
[19] = Table 6, read-out: DHODH IC50/nM
[20] = Table 7, read-out: DHODH IC50/nM
[21] = Table 8, read-out: DHODH IC50/nM
[22] = 144 h, HepG2 2.2.15 cells, HBV DNA, six days

| Compound | CC50 at 6 days [1] [nM] | EC50 (HIV-191US005; [12]) [nM] | EC90 (HIV-191US005; [13]) [nM] | EC50 (HIV-191US005; [14]) [nM] | EC90 (HIV-191US005; [15]) [nM] | EC50 (DENV Type 2 (New Guinea)) | EC50 (RSV Strain Long) | IC50 [2, 16] [nM] | IC50 [2, 17] [nM] | IC50 [2, 18] [nM] | IC50 [2, 19] [nM] | IC50 [2, 20] [nM] | IC50 [2, 21] [nM] | EC50 (Influenza Virus (H7N7)) [nM] | EC50 (HBV; [22]) [nM] | EC50 [3] [nM] | EC50 (YFV Strain 17D) | EC50 (WNV Strain NY-99) | TC50/nM (human PBMCs) [nM] | IC50 ([2]; DHODH IC50/nM, Table 1) [nM] | also measured |
| --- | --- | --- | --- | --- | --- | --- | --- | --- | --- | --- | --- | --- | --- | --- | --- | --- | --- | --- | --- | --- | --- |
| O=C(Nc1c(F)c(F)c(-c2cccc(OC(F)(F)F)c2)c(F)c1F)c1ccsc1C(=O)O [Compound 1, 3-(2,3,5,6-Tetrafluoro-3′-trifluoromethoxy-biphenyl-4-ylcarbamoyl)-thiophene-2-carboxylic acid] | > 10000 | 120 | 300 | 170 | 300 | 72 nM | 2100 nM | < 20 | < 20 | < 20 | < 20 | < 20 | < 20 | ~1500 | 4800 | 23 | 232 nM | 735 nM | >100000 | – | EC50 (HCMV AD 169-GFP): 780 nM; IC50 [2]: < 20 nM; IC50 ([2]; Table 10, read-out: DHODH IC50/nM): < 20 nM; IC50 ([2]; read-out: DHODH IC50/nM, Table 2): < 20 nM; CC50 at 7 days (in vitro [4]): > 10000 nM; TC50 [5]: >100 µM |
| O=C(O)C1=C(C(=O)Nc2ccc(OCc3c(F)cccc3Cl)c(Cl)c2)CCC1 [Compound 3, 2-[3-Chloro-4-(2-chloro-6-fluoro-benzyloxy)-phenylcarbamoyl]-cyclopent-1-enecarboxylic acid] | > 10000 | 190 | 700 | 190 | 630 | 83 nM | > 10000 nM | < 20 | < 20 | < 20 | < 20 | – | – | – | > 10000 | 500 | 2190 nM | > 10000 nM | 44800 | < 20 | IC50 ([2]; DHODH IC50/nM, Table 7): < 20 nM; IC50 ([2]; Table 2, read-out: DHODH IC50/nM): < 20 nM |
| O=C(O)C1=C(C(=O)Nc2c(F)c(F)c(-c3cccc(OC(F)(F)F)c3)c(F)c2F)CCC1 [Compound 4, 2-(2,3,5,6-Tetrafluoro-3′-trifluoromethoxy-biphenyl-4-ylcarbamoyl)-cyclopent-1-enecarboxylic acid] | > 10000 | 60 | 210 | 80 | 240 | 67 nM | 2150 nM | – | – | < 20 | < 20 | – | < 20 | ~3000 | – | 80 | 681 nM | > 10000 nM | 42400 | < 20 | IC50 ([2]; DHODH IC50/nM, Table 2): < 20 nM; IC50 ([2]; DHODH IC50/nM, Table 3): < 20 nM; IC50 ([2]; DHODH IC50/nM, Table 4): < 20 nM; IC50 ([2]; DHODH IC50/nM, Table 7): < 20 nM; IC50 ([2]; Table 9, read-out: DHODH IC50/nM): < 20 nM; inhibition at 31.6 µM (Ebola Virus): > 90%; inhibition at 100 µM (Ebola Virus): > 98%; inhibition at 30 µM (Influenza Virus (H7N7)): > 90%; EC50 (HBV; HepG2 2.2.15, 144 h): > 10000 nM |
| COc1cccc(-c2ccc(NC(=O)C3=C(C(=O)O)CCC3)c(F)c2)c1 [Compound 6, 2-(3-Fluoro-3′-methoxy-biphenyl-4-ylcarbamoyl)-cyclopent-1-enecarboxylic acid] | – | – | – | – | – | – | – | – | – | – | – | – | – | – | – | 4640 | – | – | >100000 | – | EC50 (HIV-191US005; read-out: EC50/nM, Endpoint RT, seven days): 2190 nM; EC50 (HIV-191US005; read-out: EC50/nM, Endpoint p24, seven days): 1970 nM; EC90 (HIV-191US005; read-out: EC90/nM, Endpoint RT, seven days): 6110 nM; EC90 (HIV-191US005; read-out: EC90/nM, Endpoint p24, seven days): 6250 nM; inhibition at 31.6 µM (Ebola Virus): 90%; inhibition at 100 µM (Ebola Virus): > 98%; inhibition at 30 µM (Influenza Virus (H7N7)): > 80% |
| O=C(Nc1c(F)cc(-c2cccc(OC(F)(F)F)c2)cc1F)c1ccsc1C(=O)O [Compound 17, 3-(3,5-difluoro-3′-(trifluoromethoxy)biphenyl-4-ylcarbamoyl)thiophene-2-carboxylic acid] | > 10000 | – | – | – | – | > 10000 nM | > 10000 nM | < 20 | < 20 | – | < 20 | < 20 | < 20 | ~3000 | 6400 | – | 2250 nM | 6390 nM | – | – | CC50 (in vitro [6]): > 10000 nM; IC50 ([2]; DHODH IC50/nM, Table 5): < 20 nM; CC50 (in vitro [7]): > 10000 nM; CC50 (in vitro [8]): > 10000 nM |
| NC(=O)c1ncn([C@@H]2O[C@H](CO)[C@@H](O)[C@H]2O)n1 [Ribavirin, reference compound] | – | – | – | – | – | 26.5 µg/mL | 7.95 µg/mL | – | – | – | – | – | – | – | – | – | 7.33 µg/mL | 22 µg/mL | – | – | TC50 (Vero cells [9]): >100 µg/mL; TC50 (Vero cells [10]): >100 µg/mL; TC50 (Vero cells [11]): >100 µg/mL |
